PMC10572563, “Application of Pluronics for Enhancing Aqueous Solubility of Lipophilic Microtubule Destabilizing Compounds on the Sea Urchin Embryo Model” (International Journal of Molecular Sciences, 2023)
Where “and” joins values, the source holds several entries; their conditions need not be identical. Identical values can stand only once. Like-named read-outs stand apart in the source and are kept apart here. One block for each molecule: values may come before it.

What was measured:
[1] = Aqueous solubility of chalcones in PBS or Pluronic solutions (UV absorbance of saturated supernatant); assay type: physicochemical; details: for Increase of solubility: Pluronic P123 concentration up to 10%, 25 °C; for Increase of solubility / solubility: PBS pH 7.4; for Enhancement of solubility in aqueous medium: in the presence of 5% Pluronic 123; for solubility: phosphate-buffered saline (PBS) without Pluronics, aqueous with cosolvent or surfactant or cyclodextrin, kinetic from dmso stock, without Pluronics
Procedure: The absorbance of chalcone solutions in DMSO was measured using an Ultrospec 1100 Pro UV/Vis spectrophotometer. […] To this end, 100 mg/mL solutions of 3 and 4 in DMSO were prepared and diluted 10-fold either with neat PBS or with Pluronic solutions of various concentrations. Dilution with PBS yielded the precipitation of the most part of the solute. The precipitated chalcones were removed via centrifugation at 9000 rpm for 5 min. The supernatant represented a saturated solution of the chalcone in the aqueous medium. Then, the supernatants were 10–1000-fold diluted with DMSO, their absorbance was measured at 367 nm for 3 or 350 nm for 4, and the aqueous solubility of chalcones was calculated using the εDMSO values obtained previously. The solubility values were measured in 2–4 repetitions and presented in the graphs as the mean ± SD for p < 0.05.

[2] = Precipitation in 1 mM intermediate solutions (visual and microscopic examination); assay type: physicochemical; details: for Appearance of 1 mM/FSW intermediate solution: 1 mM in FSW; for Appearance of 1 mM solution in 5% F127: 1 mM in 5% F127, room temperature
Procedure: Stock solutions of albendazole 1 and isoxazole 2 were prepared in DMSO and 2-pyrrolidone at 10 mM concentration, and stock solutions of chalcones 3 and 4 were prepared in DMSO at 10 mM concentration. […] The precipitation of compounds was analyzed via both visual and microscopic examination.

sea urchin embryos = test system: sea urchin embryos
Procedure: Toxic effects were assessed by exposing fertilized eggs (5−18 min after fertilization) to 2-fold decreasing concentrations of Pluronics. Embryo development was monitored at room temperature until the beginning of active feeding (four-arm mid-pluteus stage). The effects were detected at the following developmental stages: cleavage (2.5 and 5.5–6 h after fertilization), hatched mid-blastula (8.5–9.5 h), mesenchyme blastula (~11 h), prism (20–21 h), early pluteus (25–27 h), and four-arm pluteus (34–35 h) (Figure S2). The effects were estimated quantitatively as no observed effect concentration (NOEC), minimum effective concentration (MEC), and minimum lethal concentration (MLC).

[3] = pH 7.0; cited from earlier work
[4] = solvents in the in vivo sea urchin embryo assay

Increase of solubility [1]: 13 fold
Enhancement of solubility in aqueous medium [1]: enhanced by an order of magnitude
solubility [1]: 344 µg/mL and 1000 µM
Molecule: COc1ccc(/C=C/C(=O)c2cc(OC)c(OC)c(OC)c2)cc1O [compound 3]
Appearance of 1 mM/FSW intermediate solution [2]: clear without any visible signs of precipitation

MEC relative to CMC (sea urchin embryos; in vivo): ~ 6 times
Reduction of MEC (sea urchin embryos; in vivo): 4 times
Molecule: Pluronic P123

Molecule: CCO [EtOH]
NOEC (sea urchin embryos; in vivo): 0.5 % v/v

Increase of solubility [1]: 19 fold
Enhancement of solubility in aqueous medium [1]: enhanced by an order of magnitude
solubility [1]: 88.7 µg/mL and 270 µM
Molecule: COc1ccc(/C=C/C(=O)c2cc(OC)c(OC)c(OC)c2)cc1 [compound 4]
Appearance of 1 mM/FSW intermediate solution [2]: formed a thick suspension of fine crystals

Molecule: O=C1CCCN1 [2-pyrrolidone, 2-Pyrrolidone]
NOEC (sea urchin embryos; [4]): 0.1 % v/v

Molecule: CCCSc1ccc2nc(NC(=O)OC)[nH]c2c1 [compound 1, albendazole]
Appearance of 1 mM solution in 5% F127 [2]: formed opaque 1 mM solution in 5% F127
Appearance of 1 mM/FSW intermediate solution [2]: formed a thick suspension of fine crystals
Aqueous solubility [3]: < 1 µg/mL

Molecule: COc1ccc(-c2cnoc2-c2cc(OC)c(OC)c(OC)c2)cc1 [compound 2]
Appearance of 1 mM solution in 5% F127 [2]: remained clear throughout four days of storage at room temperature
Appearance of 1 mM/FSW intermediate solution [2]: opaque, followed by the precipitation of crystals in the bottom of the vial

Molecule: C[S+](C)[O-] [DMSO]
NOEC (sea urchin embryos; [4]): 0.2 % v/v
